Where two headings read alike, the source gives them in different places.
What was measured:
[1] = test system: primary hippocampal neurons; assay: Excitotoxicity in dispersed primary hippocampal cultures (MTT cell survival); format: cell-based, Sprague Dawley rat
[2] = test system: organotypic hippocampal slice cultures, hippocampal CA1 region; assay: Oxygen/glucose deprivation of hippocampal organotypic slice cultures (PI staining); format: cell-based, Lister Hooded rat
Ih = assay: Whole-cell patch-clamp detection of Ih in neurones from both culture models; format: cell-based, rat
HCN channels = conditions: non use-dependent; cited from earlier work
hippocampal cultures = assay: Spontaneous synaptic activity and membrane potential in hippocampal cultures, Mg2+-free insult; format: cell-based, rat; conditions: 100 μM; applied before, during or after the Mg2+-free insult
Procedure: When Mg^2+ containing medium was reinstated 15 mins later there was a sustained increase in spontaneous activity above that recorded prior to the Mg^2+ free challenge. No change in the magnitude of the Ih current was recorded during or after the Mg^2+ free challenge. […] This reduction in activity differed from that induced by the NMDA receptor antagonist AP5 in that the frequency of activity in the presence of ZD7288 was much lower, yet individual events were much larger, than that observed in AP5.

[3] = test system: metabotropic glutamate receptor; assay: Selectivity: metabotropic glutamate receptor activation; format: cell-based; conditions: 100 μM
SCN neurones = assay: Suprachiasmatic nucleus slices, extracellular single unit recordings; format: cell-based, rat; conditions: 10-100 μM; all neurones tested
Procedure: Supraachiasmatic nucleus slices were prepared from 4-6 week old rats that had been sacrificed by cervical dislocation and subsequent decapitation in accordance with UK Home Office guidelines. The brain was removed rapidly and SCN slices prepared by cutting 400 μm thick coronal sections through the whole brain minus the cerebellum using a vibroslicer (Campden Instruments, Loughborough, UK). The resultant SCN slices were placed in a warmed (32-34° C.) submersion recording chamber perfused at 1-2 ml.min^−1 with an oxygen-enriched (95% O2, 5% CO2) artificial cerebrospinal fluid (aCSF) comprised of (mM): NaCl, 124; KCl, 3; NaHCO3, 26; NaH2PO4, 1.25; CaCl2, 2; MgSO4, 1; D-glucose, 10. Extracellular single unit recordings were made using glass microelectrodes (24 MΩ) filled with aCSF placed in the SCN.

hippocampal slices = assay: Epileptiform bursting activity in hippocampal slices (field recordings, area CA3); format: cell-based, rat; conditions: irrespective of model: bicuculline, Mg2+-free, 4-AP, Ca2+-free/elevated K+
Procedure: Hippocampal slices were prepared from 4-6 week old rats that had been sacrificed by cervical dislocation and subsequent decapitation in accordance with UK Home Office guidelines. The brain was removed rapidly and hippocampal slices prepared by cutting 400 μm thick horizontal sections through the whole brain minus the cerebellum using a vibroslicer (Campden Instruments, Loughborough, UK). The hippocampus from these sections was dissected free from the surrounding brain regions and the resultant hippocampal slices placed on a nylon mesh at the interface of a warmed (32-34° C.), perfusing (1-2 ml.min^−1) artificial cerebrospinal fluid (aCSF) and an oxygen-enriched (95% O2, 5% CO2), humidified atmosphere. The standard perfusion medium comprised (mM): NaCl, 124; KCl, 3; NaHCO3, 26; NaH2PO4, 1.25; CaCl2, 2; MgSO4, 1; D-glucose, 10; and was bubbled with 95% O2, 5% CO2. Extracellular field potential recordings were made using glass microelectrodes (24 MΩ) filled with aCSF placed in stratum pyramidale in area CA3. […] Non synaptic field bursting activity (that is relevant to both epilepsy and migraine) was induced by removal of extracellular Ca^2+ and elevation of extracellular K^+ from 3 mM to 6-8 mM (FIG. 12).

NMDA receptor = format: cell-based
[4] = test system: voltage-gated Na+ and K+ channels; assay: Selectivity: action potential firing; format: cell-based; conditions: 100 μM
[5] = test system: voltage-gated Ca2+ channel; assay: Selectivity: voltage-gated Ca2+ channel activation; format: cell-based; conditions: 100 μM

C[C@]12N[C@H](Cc3ccccc31)c1ccccc12 [MK-801]
NEURONAL SURVIVAL (%) [1]: 101 ± 1.2%
DAMAGE (% Cell Loss) [2]: 34.90 ± 15.99%

CCN(c1ccccc1)c1cc(=NC)n(C)c(C)n1.Cl [ZD7288, N-ethyl-1,6-dihydro-1,2-dimethyl-6-(methylimino)-N-phenyl-4-pyrimidinamine hydrochloride]
block of Ih (Ih; 100 μM): almost completely blocked
inhibition of hyperpolarization-activated current (Ih) (Ih; 0.1-100 μM): inhibited
concentration range inhibiting HCN channels (HCN channels): 1 to 300 µM
NEURONAL SURVIVAL (%) ([1]; 1 μM, added 30 minutes before, during, and for 24 h after the insult): 40.6 ± 4.9%
NEURONAL SURVIVAL (%) ([1]; 3 μM, added 30 minutes before, during, and for 24 h after the insult): 40.1 ± 8.1%
NEURONAL SURVIVAL (%) ([1]; 10 μM, added 30 minutes before, during, and for 24 h after the insult): 48.4 ± 5.5%
NEURONAL SURVIVAL (%) ([1]; 30 μM, added 30 minutes before, during, and for 24 h after the insult): 56.7 ± 2.0%
NEURONAL SURVIVAL (%) ([1]; 100 μM, added 30 minutes before, during, and for 24 h after the insult): 65.9 ± 3.7%
NEURONAL SURVIVAL (%) ([1]; 100 μM, added during the 24 h recovery period only): 78.0 ± 5.5%
NEURONAL SURVIVAL (%) ([1]; 100 μM, added during the insult only): 79.5 ± 2.1%
NEURONAL SURVIVAL (%) ([1]; 300 μM, added 30 minutes before, during, and for 24 h after the insult): 88.5 ± 2.7%
NEURONAL SURVIVAL (%) ([1]; 300 μM, added during the 24 h recovery period only): 101.0 ± 1.2%
NEURONAL SURVIVAL (%) ([1]; 300 μM, added during the insult only): 97.9 ± 9.6%
delay of application after the insult without loss of neuroprotective efficacy ([1]; FIG. 4): up to 60 minutes
IC50 ([1]; Rattus norvegicus, Hippocampal neuron, hippocampal neurones, read-out: IC50 for inhibition of damage): ~120 µM
DAMAGE (% Cell Loss) ([2]; 100 nM, added 60 minutes before, during, and for 24 h after the insult): 64.01 ± 4.66%
DAMAGE (% Cell Loss) ([2]; 300 nM, added 60 minutes before, during, and for 24 h after the insult): 15.12 ± 9.54%
DAMAGE (% Cell Loss) ([2]; 1 μM, added 60 minutes before, during, and for 24 h after the insult): 0.72 ± 0.44%
DAMAGE (% Cell Loss) ([2]; 10 μM, added 60 minutes before, during, and for 24 h after the insult): 4.58 ± 3.09%
DAMAGE (% Cell Loss) ([2]; 100 μM, added immediately after the insult and for the 24 h recovery period only): 12.50 ± 8.24%
neuroprotection ([2]; applied immediately after oxygen glucose deprivation, FIG. 3): neuroprotection was still observed
electrophysiological responses in stratum pyramidale and stratum radiatum of area CA1 ([2]; treated slices subjected to OGD, single-shock electrical stimulation in stratum radiatum, FIG. 3): possible to evoke normal electrophysiological responses
effect on membrane potential / current (hippocampal cultures): induced a membrane potential hyperpolarization/outward current
effect on spontaneous activity (hippocampal cultures): reduced spontaneous activity
direct effects on metabotropic glutamate receptor activation [3]: no direct effects
effect on frequency of single unit firing (SCN neurones): concentration dependent reduction
effect on epileptiform bursting activity (hippocampal slices): concentration dependent inhibition
direct effects on NMDA receptor activation (NMDA receptor): no direct effects
direct effects on action potential firing (activation of voltage-gated Na+ and K+ channels) [4]: no direct effects
direct effects on voltage-gated Ca2+ channel activation [5]: no direct effects

From patent US20040033943A1, “Hcn polypeptides and polynucleotides and their use in therapy” (priority 2000, published 2004)
